According to patent US5840740A, “Aminosterol compounds and a method of treating infection using the aminosterol compounds” (priority 1995, dated 1998):
Converted amounts (≈) assume the structure as drawn. “Also recorded” adds a separate entry of the source. Read-outs that look alike come from different tables or passages of the source.

Experiments:
[1] = system: S. aureus; test: Antibiotic activity (MIC); type: cell-based; conditions: Staphylococcus aureus
[2] = system: chick embryo vitelline capillaries; test: Chick embryo vitelline capillary regression assay; type: in vivo; set-up: key to vascular reactivity (capillary regression): +: Vascular reactivity; 0: No vascular reactivity; +/-: Equivocal reactivity; conditions: for Chick embryo diss. assay, Minimum Effective Concentration: Table II; for vascular reactivity (capillary regression): 60 min
Method: Using the chick embryo vitelline capillaries assay, compounds were tested for their ability to induce capillary regression. Each compound was applied in 0.1 ml of 15% Ficol 400 and PBS onto the embryo, and vascular regression was assessed after 60 minutes.
The 3-day chick embryo consists of an embryonic disc from which numerous vessels emerge and return, forming a "figure 8"-shaped structure--the embryo in the center with vascular loops extending outward over both poles. […] Following a lag period of around 15 minutes, the constriction of continuity between capillary and secondary vessels, generally on the "avenous" side, was observed. Continued pulsatile blood flow progressed, resulting in a "swelling" of the blind tube, followed by a pinching off of the remaining connection and formation of an enclosed vascular sac resembling a "blood island." This process progressed until only the largest vessels remained intact.

[3] = system: Xenopus tadpole; conditions: stage 59-60, 10 μg/ml; for pharmacological response in tadpole: in words
[4] = system: HM; test: HM MTT assay; type: cell-based; conditions: Table II, Minimum Effective Concentration
[5] = system: B16 melanoma; test: B16 melanoma growth in C57B mice; type: in vivo, mouse; conditions: squalamine 5 mg/kg/day; compound 1436 10 mg/kg/every 3 days
Method: The growth of B16 melanoma in C57B mice is dependent upon neovascularization.
Using the growth of B16 melanoma cells in C57B mice, a recognized model for the evaluation of inhibitors of angiogenesis on the growth of cancers, the effects of subcutaneous, intraperitoneal and oral administration of squalamine were evaluated.
In this model, there was observed little evidence of metastasis with or without treatment with chemotherapeutic agents.
Based on the idea that tumor growth involves both the clonal expansion of a malignant cell along with the development of a supporting vascular supply, a combination of compound 1436 with squalamine was tested to determine whether it would achieve a synergistic effect on solid tumor growth. This concept was evaluated in the B16 melanoma model.
Animals were implanted with B16 melanoma followed by treatment with compound 1436 or 1256 administered in a combined schedule or separately. […] Thus, a combination of these two compounds achieves a therapeutic benefit in tumors dependent on neovascularization that may prevent metastatic spread.

[6] = system: HIV; test: Inhibition of HIV replication (P-24 Elisa); type: cell-based; conditions: 7 days
[7] = system: bovine pulmonary endothelial cells; test: Growth inhibition in vitro; type: cell-based; conditions: 10 μg/ml
Description: (§1) As set forth in Table 7 below, all malignant tumors evaluated in tissue culture, endothelial cells and vascular smooth muscle cells were sensitive to inhibition. Thus, compound 1436 has application in the control of growth factor dependent proliferation of many types of tissue.

[8] = system: Human melanoma WM 1617; test: Growth inhibition in vitro; type: cell-based; conditions: 10 μg/ml
Description: as §1

[9] = system: Murine B16 melanoma; test: Growth inhibition in vitro; type: cell-based; conditions: 10 μg/ml
Description: as §1

[10] = system: Human ovarian carcinoma SKOV3; test: Growth inhibition in vitro; type: cell-based; conditions: 10 μg/ml
Description: as §1

[11] = system: Human microvascular endothelial cells; test: Growth inhibition in vitro; type: cell-based; conditions: 10 μg/ml
Description: as §1

[12] = system: human umbilical venous endothelial cells; test: Growth inhibition in vitro; type: cell-based; conditions: 10 μg/ml
Description: as §1

[13] = system: Murine L1210 leukemia; test: Growth inhibition in vitro; type: cell-based; conditions: 10 μg/ml
Description: as §1

[14] = system: Lewis lung carcinoma; test: Growth inhibition in vitro; type: cell-based; conditions: 10 μg/ml
Description: as §1

[15] = system: Human coronary artery smooth muscle cells; test: Growth inhibition in vitro; type: cell-based; conditions: 10 μg/ml
Description: as §1

[16] = system: Human colon carcinoma SW948; test: Growth inhibition in vitro; type: cell-based; conditions: 10 μg/ml
Description: as §1

[17] = system: Human colon carcinoma HT29; test: Growth inhibition in vitro; type: cell-based; conditions: 10 μg/ml
Description: as §1

[18] = system: human coronary artery smooth muscle; test: Proliferation of human coronary artery smooth muscle in vitro; type: cell-based; conditions: in words (1436: about 11 μg/ml)
Description: Aminosterols of the invention may also have utility in inhibiting the growth factor mediated proliferation of smooth muscle within the artery. Following coronary angioplasty, reocclusion commonly occurs, secondary to reparative proliferation of the vascular smooth muscle within the wall of the surgically manipulated blood vessel. This process generally takes place over the course of 7-10 days. To evaluate whether an agent could prevent the growth factor mediated proliferation of smooth muscle within the artery, compound 1436 was evaluated in vitro for its effect on the proliferation of human coronary artery smooth muscle. Results for compound 1436 are shown in FIG. 13, and those for squalamine are shown in FIG. 14, with FIG. 15 being a composite logarithmic plot.

[19] = Fasting blood glucose in mice; type: in vivo, mouse (male CD-1); conditions: i.v.; in words
Method: To study the effect of steroid administrator or the NHE responsible for secretion of insulin, several of the aminosterols from shark liver were administered to fasting mice. Male CD-1 mice were assigned to one of four treatment groups. Whole blood glucose was tested using glucometer (Lifescan Glucometer II and One Touch test strips). Statistical analysis was via one-way analysis of variance (ANOVA) followed by subsequent Bonferonni's t-test.

[20] = system: PHA-stimulated human lymphocytes; test: Inhibition of mitogen (PHA)-stimulated growth of human T-cells; type: cell-based; conditions: in words; 10 μg/ml
Description: Results are tabulated below.

[21] = system: malignant tumors, endothelial cells and vascular smooth muscle cells; test: Inhibition of growth of a spectrum of cells; type: cell-based; conditions: in words
Description: as §1

[22] = target: rabbit NHE3 (Oryctolagus cuniculus, UniProt P26432); conditions: 10 μg/ml, acid preloaded
Method: For cells not acid-preloaded, the actual internal pH value was monitored as a function of time following addition of squalamine, with the results depicted in FIG. 1B.
PS120 fibroblasts transfected with rabbit NHE3 were grown and acid preloaded by exposure to 40 mM NH4 C1 as described above in conjunction with FIGS. 1A and 1B. Internal cellular pH changes expressed as the rate of pH recovery as a function of restored extracellular sodium ion concentration following exposure to 10 μg/ml of the compound were assayed with the fluorescent dye BCECF-AM as described above.

[23] = Arterial resistance / pressure in the rat; type: in vivo; conditions: 30 minutes; noradrenaline 40 μg
Method: A 200-g rat was catheterized in the right carotid artery, and the compound was introduced over a ten-second period to a total dosage of 5 mg/kg.
At that time, 40 μg of noradrenaline was introduced.

[24] = Hematological profile in L1210-inoculated mice; conditions: L1210 mice; cisplatin 8 mg/kg ip or compound 1436 10 mg/kg ip q4d
Description: C57B mice were inoculated with L1210 lymphoblastic leukemia cells at an inoculum that causes leukemia in 100% of animals.

[25] = Growth and weight gain in mice; type: in vivo, mouse (C57B)
Method: Animals were dosed QTD (i.p.) starting on Day 1. […] Animals receiving 5 mg/kg QTD experienced about a 50% reduction in growth, compared to untreated controls, while animals receiving 1 mg/kg QTD were affected by about 10%. […] They appeared very much like hypophysectamized animals might appear.

[26] = system: Xenopus laevis heart; test: Isolated frog heart beating ex vivo; conditions: 10 μg/ml, room temperature; about one hour without compound
Method: To determine if compound 1436 has such utility, the following experiment was performed. The heart of a juvenile Xenopus laevis frog was dissected from the living animal. The heart was placed into a Petri dish containing Krebs-Ringer buffer with adrenaline 50 μg/ml, and examined with the naked eye. At room temperature, the heart continued beating in a coordinated fashion (atrial beat followed by ventricular beat) for about one hour. In the presence of 10 μg/ml of compound 1436, spontaneous beating persisted up to 24 hours.

[27] = Chemical stability; type: physicochemical

Sequence of rabbit NHE3 (P26432 30-832): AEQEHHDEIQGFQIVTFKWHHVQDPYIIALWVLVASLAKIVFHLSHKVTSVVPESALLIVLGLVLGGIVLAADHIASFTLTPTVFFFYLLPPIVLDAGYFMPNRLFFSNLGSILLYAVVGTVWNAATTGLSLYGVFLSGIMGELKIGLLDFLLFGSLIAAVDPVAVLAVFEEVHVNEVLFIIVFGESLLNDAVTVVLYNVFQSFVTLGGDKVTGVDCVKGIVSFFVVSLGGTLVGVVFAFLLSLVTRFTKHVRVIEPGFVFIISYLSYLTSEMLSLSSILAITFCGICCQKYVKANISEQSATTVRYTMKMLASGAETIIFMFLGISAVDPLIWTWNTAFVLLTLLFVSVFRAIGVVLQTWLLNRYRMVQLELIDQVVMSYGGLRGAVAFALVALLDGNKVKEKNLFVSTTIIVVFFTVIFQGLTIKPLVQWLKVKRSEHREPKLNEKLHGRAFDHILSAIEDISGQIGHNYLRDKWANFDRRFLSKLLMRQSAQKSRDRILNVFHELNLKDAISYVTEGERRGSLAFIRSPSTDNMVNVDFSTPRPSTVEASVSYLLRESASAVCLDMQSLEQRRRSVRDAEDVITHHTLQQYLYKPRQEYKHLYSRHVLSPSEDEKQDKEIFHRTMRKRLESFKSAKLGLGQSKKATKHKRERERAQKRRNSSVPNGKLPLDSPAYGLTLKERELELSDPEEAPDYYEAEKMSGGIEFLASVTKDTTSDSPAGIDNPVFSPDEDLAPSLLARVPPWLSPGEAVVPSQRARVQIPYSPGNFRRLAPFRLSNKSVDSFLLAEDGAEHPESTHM

In the case of CC(COS(=O)(=O)O)C(=O)CC[C@@H](C)[C@H]1CC[C@H]2[C@@H]3[C@H](O)C[C@H]4C[C@@H](NCCCNCCCCN)CC[C@]4(C)[C@H]3CC[C@]12C (stereo partly drawn), the MIC [1] is reported as 8 µg/mL (≈ 12.5 µM).
In the case of CC(C)CCC[C@@H](C)[C@H]1CC[C@H]2[C@@H]3[C@H](O)C[C@H]4C[C@H](NCCCNCCCCN)CC[C@]4(C)[C@H]3CC[C@]12C [Compound 370], the “Chick embryo diss. assay, Minimum Effective Concentration” value [2] is reported as > 10 µg, the “pharmacological response in tadpole” value [3] is reported as “pharmacologic activity similar to that seen for FX 3” and the minimal effective concentration [4] is reported as 40 µg/mL.
With CC(C)[C@@H](CC[C@@H](C)[C@H]1CC[C@H]2[C@@H]3[C@H](O)C[C@H]4C[C@@H](NCCCNCCCCNCCCN)CC[C@]4(C)[C@H]3CC[C@]12C)OS(=O)(=O)O [Compound 1436] the “effect on B16 tumor volume, single agent and combination” value [5] was “no significant impact on tumor volume”, the “vascular reactivity (capillary regression)” value (“vascular reactivity” for short) ([2]; 0.001 μg applied) was “+/-” and the “vascular reactivity” value ([2]; 0.01 μg applied) was “+”. The “vascular reactivity” value ([2]; 0.1 μg applied) was “+”, the “vascular reactivity” value ([2]; 1 μg applied) was “+” and the “vascular reactivity” value ([2]; 10 μg applied) was “+”. The “Chick embryo diss. assay, Minimum Effective Concentration” value [2] was 1 µg, the “effect on chick embryo vessels / blood” value ([2]; in words) was “causes vitelline capillary regression with about the same potency as squalamine” and the “P-24 Elisa” value ([6]; 0.5 μM) was 40561. The “P-24 Elisa” value ([6]; 1 μM) was 7464, the “P-24 Elisa” value ([6]; 5 μM) was 3426 and the “P-24 Elisa” value ([6]; 10 μM) was 421. The “P-24 Elisa” value ([6]; 20 μM) was 9, the “growth inhibition in vitro” value [7] was “INHIBITED” and the “growth inhibition in vitro” value [8] was “INHIBITED”. For the same molecule, the “growth inhibition in vitro” value [9] was “INHIBITED”, the “growth inhibition in vitro” value [10] was “INHIBITED” and the “growth inhibition in vitro” value [11] was “INHIBITED”. For the same molecule, the “growth inhibition in vitro” value [12] was “INHIBITED”, the “growth inhibition in vitro” value [13] was “INHIBITED” and the “growth inhibition in vitro” value [14] was “INHIBITED”. For the same molecule, the “growth inhibition in vitro” value [15] was “INHIBITED”, the “growth inhibition in vitro” value [16] was “INHIBITED” and the “growth inhibition in vitro” value [17] was “INHIBITED”. For the same molecule, the time to death [3] was “about 2 hours”, the “pharmacological response in tadpole” value [3] was “Gradual reduction in overall activity. Heart beat remained strong, suggesting nervous system depression. Melanocytes over head and tail began to swell, first exhibiting visibly distinct nuclei, followed by rupture into fragments” and the “growth suppression / viability of smooth muscle cells” value [18] was “maintained in a quiescent state in the presence of this steroid at about 11 μg/ml without loss of viability; also recorded: suppress in vitro the growth of human coronary artery smooth muscle”. For the same molecule, the hyperglycemia [19] was “caused hyperglycemia in mice”, the “inhibition of blast transformation” value [20] was “inhibited blast transformation most potently” and the “growth inhibition of a broad spectrum of cells” value [21] was “inhibit the growth of a very broad spectrum of cells”. For the same molecule, the “inhibition of rabbit NHE3” value [22] was “inhibit rabbit NHE3”, the “inhibition of rabbit NHE3” value ([22]; listed as compound 1436) was “inhibitor of NHE3” and the “duration / reversibility of arterial effect” value [23] was “followed for 30 minutes, without significant change; also recorded: readily reversible by standard pharmacological practice”. The “RBC, Early Time” value [24] was 4.8 10^6 /mm^3, the “RBC, Late Time” value [24] was 8.8 10^6 /mm^3 and the “WBC, Early Time” value [24] was 3.3 10^3 /mm^3. For the same molecule, the “WBC, Late Time” value [24] was 3.7 10^3 /mm^3, the “effect on growth of mice” value ([25]; 1 mg/kg QTD i.p.) was “about 10%” and the “reduction in growth of mice” value ([25]; 5 mg/kg QTD i.p.) was ~50%. The “growth suppression in mice” value ([25]; 10 mg/kg QTD i.p., about 1 month) was “almost completely inhibited”, the “clinical health of treated mice” value ([25]; QTD i.p.) was “all were active, normally proportioned, not-cachectic, and in excellent apparent clinical health” and the “suppression of growth and weight gain” value ([25]; in words, QTD i.p.) was “suppresses both linear growth and weight gain in growing mice in a dose-dependent fashion; also recorded: suppresses the growth of mice in a dose-dependent fashion”. The “persistence of spontaneous beating” value [26] was “up to 24 hours”.
In the case of CC(CCC(=O)C(C)(C)OS(=O)(=O)O)[C@H]1CCC2C3C(CC[C@@]21C)[C@@]1(C)CC[C@H](NCCCNCCCCN)C[C@@H]1C[C@H]3O (stereo partly drawn) [FX 1A], the stability in water [27] is reported as “undergo conversion to another molecule (FX 1B) rapidly in water”.
